Entries after “also recorded” stand apart in the source; their conditions may differ. One block for each compound: values may come before it.
Experiments:
[1] = H2S release via methylene blue assay (MBA); format: physicochemical; conditions: for H2S release in the presence of cysteine: 25 μM compound, cysteine 500 μM (20 equiv.); for H2S release / rate of H2S release, effect of alkyl functionalization: dithioesters 25 μM, cysteine 500 μM (20 equivalents), relative to compound 506a; for H2S release on treatment with GSH: 500 μM GSH; for H2S release on treatment with cysteine methyl ester: 500 μM cysteine methyl ester, compared with cysteine; for entropy of activation (ΔS‡), Eyring analysis: varied temperature; for H2S release on treatment with homocysteine: 500 μM homocysteine; for H2S release on treatment with penicillamine: 500 μM penicillamine; for H2S release in the absence of added nucleophiles (hydrolysis): H2O/PBS, physiological pH; for H2S release on co-incubation with cysteine and GSH: cysteine 500 μM + GSH 1 mM, compared with cysteine alone; for second-order rate constant (k2) of cysteine-triggered H2S release: cysteine 250-1250 μM, pseudo-first order conditions, plot of [Cys] vs kobs; for dependence of H2S release on cysteine concentration: increasing cysteine concentrations; for reaction order in cysteine: plot of log[Cys] versus log(kobs)
Description: H2S Detection Materials and Methods—Phosphate buffered saline (PBS) tablets (1×, CalBioChem) were used to prepare buffered solutions (140 mM NaCl, 3 mM KCl, 10 mM phosphate, pH 7.4) in deionized water. Buffer solutions were sparged with N2 to remove dissolved oxygen and stored in an N2-filled glovebox. Donor stock solutions (in DMSO) were prepared inside an N2-filled glovebox and stored at −25° C. until immediately before use. Trigger stock solutions (in PBS) were freshly prepared in an N2-filled glovebox immediately before use.
General Procedure for Measuring H2S Release via Methylene Blue Assay (MBA)—Scintillation vials containing 20 mL of PBS were prepared in an N2-filled glovebox. To these solutions, 20 μL of 500 mM analyte stock solution (in PBS) was added for a final concentration of 500 μM. While stirring, the solutions were allowed to thermally equilibrate in heating block at the desired temperature for approximately 20-30 minutes. Immediately prior to donor addition, 0.5 mL solution of the methylene blue cocktail were prepared in disposable 1.5 mL cuvettes. The methylene blue cocktail solution contained: 200 μL of 30 mM FeCl3 in 1.2 M HCl, 200 μL of 20 mM N,N-dimethyl-p-phenylene diamine in 7.2 M HCl, and 100 μL of 1% (w/v) Zn(OAc)2. […] At set time points after the addition of donor, 500 μL reaction aliquots were added to the methylene blue cocktail solutions and incubated for 1 hour at room temperature shielded from light. Absorbance values at 670 nm were measured 1 hour after addition of reaction aliquot. Each experiment was performed in quadruplicate unless stated otherwise.
MBA Calibration Curve—Solutions containing 0.5 mL of the methylene blue cocktail and 0.5 mL PBS containing 500 μM cysteine were freshly prepared in disposable cuvettes (1.5 mL). Under inert conditions, a 10 mM stock solution of NaSH (Strem Chemicals) in PBS was prepared and diluted to 1 mM. Immediately after dilution, 1 mM NaSH was added to 1.0 mL solutions for final concentrations of 10, 20, 30, 40, and 50 μM. Solutions were mixed thoroughly, incubated at room temperature for 1 hour, and shielded from light. Absorbance values at 670 nm were measured after 1 hour.
In this example, the released H2S was measured and quantified using the methylene blue assay for H2S. In a typical use of this assay, aliquots from a reaction mixture with the H2S donor and cysteine are treated with 0.5 mL of a methylene blue assay mixture containing 0.1 mL zinc acetate (1% w/v), 0.2 mL FeCl3 (30 mM in 1.2 M HCl), and 0.2 mL N,N-dimethyl-p-phenylene diamine (20 mM in 7.2 M HCl)). After incubation for 1 hour, the absorbance at 670 nm is measured and converted to a H2S concentration by using the H2S calibration curve. To assess the H2S-releasing efficiency from the compound embodiments, a methylene blue calibration curve was used to quantify the H2S release (FIG. 2).

[2] = Reaction product analysis (preparative isolation and HPLC); format: physicochemical; conditions: preparative scale reaction, not further hydrolyzed to N-benzoyl-L-cysteine
Description: Compound 604a (0.39 mmol, 1.0 equivalents) was dissolved in 15 mL of 2:1 THF/PBS (10 mM, pH 7.4). L-cysteine methyl ester hydrochloride (1.17 mmol, 3.0 equivalents) was added in a single portion and stirred at room temperature for 2 hours. The reaction mixture was diluted with deionized H2O (˜20 mL) and extracted with CH2Cl2 (3×20 mL). The combined organic extracts were washed with brine and dried over MgSO4. After filtration, the solvent was removed under reduced pressure, and the purified by preparative thin layer chromatography (1:1 CH2Cl2 in hexanes). Compound 604a Rf=0.75 (63.6 mg, 76%) and CysDHT Rf=0.03 (11.0 mg, 13%) were isolated and characterized by ^1H and ^13C{^1H} NMR spectroscopy. The significant recovery of compound 604a is likely due to the lack of buffering capacity in the preparative-scale reaction.
To a 20 mL solution of 10% THF in PBS (10 mM, pH 7.4) containing 2 mM L-cysteine methyl ester (20 equivalents), 20 μL of 100 mM compound 604a in THF was added and stirred at room temperature. After 1 hour, a 1 mL reaction aliquot was analyzed by HPLC. HPLC analysis was performed on an Agilent 1260 HPLC instrument with a Poroshell 120 EC-C18 4.6×100 mm column and monitored at 280 nm. […] The concentration of CysDHT and phenol present at the end of the reaction were determined by measurement against calibration curves for each compound (see FIG. 4). […]

[3] = thiol; cited from earlier work
[4] = pKa and thiolate fraction of thiol triggers (literature); format: physicochemical; conditions: under physiological conditions
[5] = 25 μM donor, cysteine, after 1 hour

SMILES: O=C(Oc1ccccc1)c1ccccc1 [phenyl benzoate, reference compound]
H2S release in the presence of cysteine [1]: lack of H2S release; also recorded: Neither of these compounds released H2S

SMILES: CC(C)C(=S)SCc1ccccc1 [compound 506f]
H2S release / rate of H2S release, effect of alkyl functionalization [1]: relatively slow H2S release

stability of dihydrothiazole under aqueous conditions [2]: stable under aqueous conditions
SMILES: COC(=O)C1CSC(c2ccccc2)=N1 (stereo not shown) [CysDHT, Methyl 2-phenyl-4,5-dihydrothiazole-4-carboxylate]

SMILES: S=C(SCc1ccccc1)c1ccccc1 [compound 506d]
H2S release / rate of H2S release, effect of alkyl functionalization [1]: minimal H2S release

SMILES: CC(=S)Sc1ccccc1 [compound 506b]
H2S release / rate of H2S release, effect of alkyl functionalization [1]: enhanced rates of H2S release

effective concentration of thiolate [4]: ~0.03%
SMILES: N[C@@H](CCS)C(=O)O [homocysteine]
pKa [3]: ~10

effective concentration of thiolate [4]: ~10%
SMILES: N[C@@H](CS)C(=O)O [cysteine]
pKa [3]: ~8.5

SMILES: CC(C)C(=S)Sc1ccccc1 [compound 506c]
H2S release / rate of H2S release, effect of alkyl functionalization [1]: enhanced rates of H2S release

SMILES: S=C(Sc1ccccc1)c1ccccc1 [compound 506a]
H2S release on treatment with GSH ([1]; 25 μM donor): a significant H2S release was not observed
H2S release on treatment with cysteine methyl ester ([1]; 25 μM donor): did not affect H2S release
entropy of activation (ΔS‡), Eyring analysis ([1]; 25 μM donor, 500 μM cysteine): −23±1 eu
H2S release on treatment with homocysteine ([1]; 25 μM donor): a reduction in the H2S release rate
H2S release on treatment with penicillamine ([1]; 25 μM donor): significant H2S release was not observed
H2S release in the absence of added nucleophiles (hydrolysis) ([1]; 25 μM donor): H2S release was not observed
H2S release on co-incubation with cysteine and GSH ([1]; 25 μM donor): Minimal change on the cysteine-triggered H2S release
second-order rate constant (k2) of cysteine-triggered H2S release ([1]; 25 μM donor): 1.8 ± 0.1 M⁻¹ s⁻¹
H2S released after 1 hour [1, 5]: approximately 17 μM
H2S releasing efficiency [1, 5]: ~68%
dependence of H2S release on cysteine concentration ([1]; 25 μM donor): Increasing amounts of H2S released with increasing cysteine concentrations
H2S release with cysteine derivatives having masked thiol or amine ([1]; 25 μM donor, thiol or amine moiety of cysteine masked): reduced H2S release
experimentally-observed ΔH‡ ([1]; Eyring analysis, 25 μM donor, 500 μM cysteine): 14.4 kcal/mol
reaction order in cysteine [1]: first order in cysteine

SMILES: CC(=S)SCc1ccccc1 [compound 506e]
H2S release / rate of H2S release, effect of alkyl functionalization [1]: H2S release was observed

SMILES: O=C(Sc1ccccc1)c1ccccc1 [S-phenyl benzothioate, reference compound]
H2S release in the presence of cysteine [1]: lack of H2S release; also recorded: Neither of these compounds released H2S

H2S release on treatment with porcine liver esterase (PLE) ([1]; 25 μM donor, PLE 1.0 U/mL): H2S generation was not observed
SMILES: S=C(Oc1ccccc1)c1ccccc1 [compound 604a, O-Phenyl benzothioate]
H2S release in the presence of cysteine [1]: result in H2S release
H2S release on treatment with GSH ([1]; 25 μM donor): does not result in H2S release; also recorded: did not generate H2S
H2S release on treatment with N-acetylcysteine ([1]; 25 μM donor, 500 μM N-acetylcysteine): did not, in H2S release
H2S release on treatment with N-acetylcysteine methyl ester ([1]; 25 μM donor, 500 μM N-acetylcysteine methyl ester): did not, in H2S release
H2S release on treatment with S-methylcysteine ([1]; 25 μM donor, 500 μM S-methylcysteine): did not, in H2S release
H2S releasing efficiency ([1]; 25 μM donor, 500 μM cysteine (20 equivalents)): 80%
H2S release on treatment with cysteine methyl ester ([1]; 25 μM donor): did not affect H2S production
entropy of activation (ΔS‡), Eyring analysis ([1]; 25 μM donor, 500 μM cysteine): −38±3 eu
H2S release on treatment with homocysteine ([1]; 25 μM donor): result in H2S release; also recorded: resulted in H2S release, although at a slower rate than from treatment with cysteine
H2S release on treatment with lysine ([1]; 25 μM donor, 500 μM lysine): did not result in H2S release
H2S release on treatment with penicillamine ([1]; 25 μM donor): result in H2S release
H2S release on treatment with serine ([1]; 25 μM donor, 500 μM serine): did not result in H2S release
H2S release in the absence of added nucleophiles (hydrolysis) ([1]; 25 μM donor): no hydrolysis-mediated H2S release was observed
H2S release on co-incubation with cysteine and GSH ([1]; 25 μM donor): results in H2S release, albeit at a slower rate than with Cys alone; also recorded: a reduced rate of H2S release was observed
Cysteine-triggered H2S release in the presence of lysine ([1]; 25 μM donor, cysteine 500 μM + lysine 500 μM): no change in H2S releasing-efficiency was observed
second-order rate constant (k2) of cysteine-triggered H2S release ([1]; 25 μM donor): 9.1 ± 0.3 M⁻¹ s⁻¹
dependence of H2S release on cysteine concentration ([1]; 25 μM donor): dose-dependent release of H2S; also recorded: Increased cysteine concentrations led to increased rates of H2S production
H2S released ([1]; 25 μM solution of donor, 500 μM cysteine (20 equivalents)): 20 µM
reaction order in cysteine [1]: first-order dependence in cysteine

Source: patent publication US11078157B1, “Compound embodiments that release H2S by reaction with a reactive compound and methods of making and using the same” (University of Oregon, priority 2018, dated 2021)
